For test [1], the system named is HCV replicon I389luc-ubi-neo/NS3-3′/ET in ET (Huh-lucubineo-ET) cells. Description: Replicon assay (Biological Example 2), luciferase readout. The settings on record: Hepatitis C virus. Format: cell-based. The method, boiled down: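 EC50 values come from Hill fits of % inhibition of replicon-driven firefly luciferase, relative to no-compound wells. Compounds were serially diluted (10 points, 3-fold, 0.1 nM–50 μM final, 0.5% DMSO) onto ET replicon cells and read after 48 h.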

The target in test [2] is T1, HCV polymerase (Hepatitis C virus genotype 1b, UniProt Q9WMX2).
T1 construct: (His)6 (C); made in house; host or cells: XL-1 cells (E. coli, by own knowledge)
Description: Polymerase assay of Biological Example 1 (IC50 values of Table 3). The test is classed as biochemical. The conditions noted are these: IC50 values of Table 3, polymerase assay of Biological Example 1; read-out: NS5B-enzyme3.

The mark [3] stands for this setting: ET cells, luciferase activity 48 hours after compound.

Bounds are passed on as bounds.

With `O=C(O)c1sc(-c2ccccc2)cc1N1C(=O)CN(S(=O)(=O)c2ccc(N3CCNCC3)nc2)C[C@@H]1C1CCCCC1` [Compound 132, 3-[(S)-2-Cyclohexyl-6-oxo-4-(6-piperazin-1-yl-pyridine-3-sulfonyl)-piperazin-1-yl]-5-phenyl-thiophene-2-carboxylic acid], the IC50 is ≥ 5000 nM in test [1] (setting [3]) and 108 nM in test [2].

Take `O=C(O)c1sc(-c2ccccc2)cc1N1C(=O)CN(S(=O)(=O)C2CCN(C(=O)OCc3ccccc3)CC2)CC1C1CCCCC1` (stereo not drawn) [Compound 112, 4-[4-(2-Carboxy-5-phenyl-thiophen-3-yl)-3-cyclohexyl-5-oxo-piperazine-1-sulfonyl]-piperidine-1-carboxylic acid benzyl ester]: the results for the IC50 in test [1] (setting [3]) and in test [2] were ≥ 5000 nM and 173 nM, respectively.

Regarding `O=C(O)c1sc(-c2ccc(F)cc2)cc1N1C(=O)CN(S(=O)(=O)c2ccc(N3CC[C@@H](F)C3)nc2)C[C@H]1C1CCCCC1` [Compound 280, 3-{(R)-2-Cyclohexyl-4-[6-((R)-3-fluoro-pyrrolidin-1-yl)-pyridine-3-sulfonyl]-6-oxo-piperazin-1-yl}-5-(4-fluoro-phenyl)-thiophene-2-carboxylic acid], the IC50 is ≤ 100 nM in test [1] (setting [3]) and 1 nM in test [2].

For the compound `CCc1ccc(-c2cc(N3C(=O)CCCC3C3CCCCC3)c(C(=O)O)s2)cc1` (stereo not drawn) [Compound 72, 3-(2-Cyclohexyl-6-oxo-piperidin-1-yl)-5-(4-ethyl-phenyl)-thiophene-2-carboxylic acid], the IC50 in test [1] (between 100 nM and 5.0 uM) was 100 to 5000 nM; in test [2], 64 nM.

For the compound `O=C(O)c1sc(-c2ccccc2)cc1N1C(=O)CN(S(=O)(=O)c2ccc(F)c(C(F)(F)F)c2)CC1C1CCCCC1` (stereo not drawn) [Compound 66, 3-[2-Cyclohexyl-4-(4-fluoro-3-trifluoromethyl-benzenesulfonyl)-6-oxo-piperazin-1-yl]-5-phenyl-thiophene-2-carboxylic acid], the IC50 in test [1] (between 100 nM and 5.0 uM) was 100 to 5000 nM; in test [2] it was 49 nM.

Regarding `Cc1ccc(-c2cc(N3C(=O)CN(S(=O)(=O)c4ccc(N5CC6CCC(C5)O6)nc4)C[C@H]3C3CCCCC3)c(C(=O)O)s2)cc1` [Compound 198, 3-{(R)-2-Cyclohexyl-4-[6-(8-oxa-3-aza-bicyclo[3.2.1]oct-3-yl)-pyridine-3-sulfonyl]-6-oxo-piperazin-1-yl}-5-p-tolyl-thiophene-2-carboxylic acid], the IC50 in test [1] (setting [3]) is ≤ 100 nM; in test [2], 1 nM.

Regarding `CN(C)[C@@H]1CCN(c2ccc(S(=O)(=O)N3CC(=O)N(c4cc(-c5ccccc5)sc4C(=O)O)[C@H](C4CCCCC4)C3)cn2)C1` [Compound 163, 3-{(R)-2-Cyclohexyl-4-[6-((R)-3-dimethylamino-pyrrolidin-1-yl)-pyridine-3-sulfonyl]-6-oxo-piperazin-1-yl}-5-phenyl-thiophene-2-carboxylic acid], the IC50 is ≤ 100 nM in test [1] (setting [3]) and 1 nM in test [2].

With `CC(C)(C)C#Cc1cc(N2C(=O)C(N)CC[C@H]2C2CCCCC2)c(C(=O)O)s1` (stereo partly drawn) [Compound 340, 3-((S)-3-Amino-6-cyclohexyl-2-oxo-piperidin-1-yl)-5-(3,3-dimethyl-but-1-ynyl)-thiophene-2-carboxylic acid], the IC50 was ≤ 100 nM in test [1] (setting [3]) and 8 nM in test [2].

As for `O=C(O)CCS(=O)(=O)N1CC(=O)N(c2cc(-c3ccccc3)sc2C(=O)O)C(C2CCCCC2)C1` (stereo not drawn) [Compound 41, 3-[4-(2-Carboxy-ethanesulfonyl)-2-cyclohexyl-6-oxo-piperazin-1-yl]-5-phenyl-thiophene-2-carboxylic acid], the IC50 in test [1] (setting [3]) is ≥ 5000 nM; in test [2] it was 218 nM.

Consider `CC(C)(C)C#Cc1cc(N2C(=O)[C@H](CCO)OC[C@H]2C2CCCCC2)c(C(=O)O)s1` [Compound 332, 3-[(2S,5R)-5-Cyclohexyl-2-(2-hydroxy-ethyl)-3-oxo-morpholin-4-yl]-5-(3,3-dimethyl-but-1-ynyl)-thiophene-2-carboxylic acid], for which the results for the IC50 in test [1] (setting [3]) and in test [2] were ≤ 100 nM and 12 nM, respectively.

Consider `CC(C)(C)C#Cc1cc(N2C(=O)[C@@](C)(CCCO)OC[C@H]2C2CCCCC2)c(C(=O)O)s1` [Compound 311, 3-[(2R,5R)-5-Cyclohexyl-2-(3-hydroxy-propyl)-2-methyl-3-oxo-morpholin-4-yl]-5-(3,3-dimethyl-but-1-ynyl)-thiophene-2-carboxylic acid], for which the figures for the IC50 in test [1] (setting [3]) and in test [2] were ≤ 100 nM and 2 nM, respectively.

For `Cc1cc(S(=O)(=O)N2CC(=O)N(c3cc(-c4ccccc4)sc3C(=O)O)[C@H](C3CCCCC3)C2)cnc1N1CCC[C@H]1C` [Compound 173, 3-{(R)-2-Cyclohexyl-4-[5-methyl-6-((R)-2-methyl-pyrrolidin-1-yl)-pyridine-3-sulfonyl]-6-oxo-piperazin-1-yl}-5-phenyl-thiophene-2-carboxylic acid], the IC50 in test [1] (setting [3]) is ≤ 100 nM; in test [2], 1 nM.

Turning to `Cn1ccc2c(S(=O)(=O)N3CC(=O)N(c4cc(-c5ccccc5)sc4C(=O)O)C(C4CCCCC4)C3)cccc21` (stereo not drawn) [Compound 64, 3-[2-Cyclohexyl-4-(1-methyl-1H-indole-4-sulfonyl)-6-oxo-piperazin-1-yl]-5-phenyl-thiophene-2-carboxylic acid], the IC50 in test [1] (between 100 nM and 5.0 uM) was 100 to 5000 nM; in test [2] it was 31 nM.

As to `CC(C)(C)C#Cc1cc(N2C(=O)COC[C@H]2C2CCCCC2)c(C(=O)NS(C)(=O)=O)s1` [Compound 309, N-[3-((R)-3-Cyclohexyl-5-oxo-morpholin-4-yl)-5-(3,3-dimethyl-but-1-ynyl)-thiophene-2-carbonyl]-methanesulfonamide], the IC50 in test [1] (between 100 nM and 5.0 uM) was 100 to 5000 nM; in test [2], 54 nM.

Turning to `Cc1oc(C)c(S(=O)(=O)N2CC(=O)N(c3cc(-c4ccccc4)sc3C(=O)O)C(C3CCCCC3)C2)c1C(=O)O` (stereo not drawn) [Compound 33, 4-[4-(2-Carboxy-5-phenyl-thiophen-3-yl)-3-cyclohexyl-5-oxo-piperazine-1-sulfonyl]-2,5-dimethyl-furan-3-carboxylic acid], the IC50 in test [1] (setting [3]) was ≥ 5000 nM; in test [2], 38 nM.

As to `O=C(O)c1sc(-c2ccccc2)cc1N1C(=O)CN(S(=O)(=O)c2ccc(N3CCNCC3)nc2)CC1C1CCCCC1` (stereo not drawn) [Compound 88, 3-[2-Cyclohexyl-6-oxo-4-(6-piperazin-1-yl-pyridine-3-sulfonyl)-piperazin-1-yl]-5-phenyl-thiophene-2-carboxylic acid], the IC50 is ≤ 100 nM in test [1] (setting [3]) and 2.13 nM in test [2].

For the compound `CN(C)CCNc1ccc(S(=O)(=O)N2CC(=O)N(c3cc(-c4ccccc4)sc3C(=O)O)C(C3CCCCC3)C2)cn1` (stereo not drawn) [Compound 81, 3-{2-Cyclohexyl-4-[6-(2-dimethylamino-ethylamino)-pyridine-3-sulfonyl]-6-oxo-piperazin-1-yl}-5-phenyl-thiophene-2-carboxylic acid], the IC50 in test [1] (setting [3]) is ≤ 100 nM; in test [2], 9 nM.

As for `CC(C)(C)C#Cc1cc(N2C(=O)C(CN3CCOCC3)OC[C@H]2C2CCCCC2)c(C(=O)O)s1` (stereo partly drawn) [Compound 310, 3-((R)-5-Cyclohexyl-2-morpholin-4-ylmethyl-3-oxo-morpholin-4-yl)-5-(3,3-dimethyl-but-1-ynyl)-thiophene-2-carboxylic acid], the IC50 in test [1] (setting [3]) is ≤ 100 nM; in test [2], 4 nM.

As to `O=C(O)c1sc(-c2ccccc2)cc1N1C(=O)CN(S(=O)(=O)c2cccc(OC(F)(F)F)c2)CC1C1CCCCC1` (stereo not drawn) [Compound 59], the IC50 in test [1] (between 100 nM and 5.0 uM) was 100 to 5000 nM; in test [2], 39 nM.

Take `O=C(O)c1sc(-c2ccccc2)cc1N1C(=O)CN(S(=O)(=O)c2ccc(NC3CCOCC3)nc2)CC1C1CCCCC1` (stereo not drawn) [Compound 90, 3-{2-Cyclohexyl-6-oxo-4-[6-(tetrahydro-pyran-4-ylamino)-pyridine-3-sulfonyl]-piperazin-1-yl}-5-phenyl-thiophene-2-carboxylic acid]: the IC50 in test [1] (setting [3]) was ≤ 100 nM; in test [2], 4 nM.

For `CC(C)(C)C#Cc1cc(N2C(=O)C(CCCO)(CCCO)OC[C@H]2C2CCCCC2)c(C(=O)O)s1` [Compound 115, 3-[(R)-5-Cyclohexyl-2,2-bis-(3-hydroxy-propyl)-3-oxo-morpholin-4-yl]-5-(3,3-dimethyl-but-1-ynyl)-thiophene-2-carboxylic acid], the IC50 in test [1] (between 100 nM and 5.0 uM) was 100 to 5000 nM; in test [2], 4 nM.

For the compound `CCC1(CC)CN(c2ccc(S(=O)(=O)N3CC(=O)N(c4cc(-c5ccccc5)sc4C(=O)O)[C@H](C4CCCCC4)C3)cn2)CCO1` [Compound 218, 3-{(R)-2-Cyclohexyl-4-[6-(2,2-diethyl-morpholin-4-yl)-pyridine-3-sulfonyl]-6-oxo-piperazin-1-yl}-5-phenyl-thiophene-2-carboxylic acid], the IC50 in test [1] (setting [3]) is ≤ 100 nM; in test [2] it was 1 nM.

Take `CNC(=O)c1ccc(S(=O)(=O)N2CC(=O)N(c3cc(C#CC(C)(C)C)sc3C(=O)O)[C@H](C3CCCCC3)C2)cc1` [Compound 253, 3-[(R)-2-Cyclohexyl-4-(4-methylcarbamoyl-benzenesulfonyl)-6-oxo-piperazin-1-yl]-5-(3,3-dimethyl-but-1-ynyl)-thiophene-2-carboxylic acid]: the IC50 in test [1] (setting [3]) was ≤ 100 nM; in test [2], 2 nM.

As to `CC(C)(C)C#Cc1cc(N2C(=O)[C@](C)(CCC(C)(C)O)OC[C@H]2C2CCCCC2)c(C(=O)O)s1` [Compound 318, 3-[(2S,5R)-5-Cyclohexyl-2-(3-hydroxy-3-methyl-butyl)-2-methyl-3-oxo-morpholin-4-yl]-5-(3,3-dimethyl-but-1-ynyl)-thiophene-2-carboxylic acid], the IC50 in test [1] (setting [3]) is ≤ 100 nM; in test [2], 14 nM.

(Values after patent US9498483B2, “2,3,5-trisubstituted thiophene compounds and uses thereof” (priority 2010, dated 2016).)
